Test results: PubChem BioAssay (NCI)
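How tested: cells in 96-well plates exposed to compound for 48 hours at five concentrations. TGI is the concentration that stops growth completely.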

Test system: SF-295 CNS
Assay: NCI tumour cell line growth inhibition, 48 h

| Structure (SMILES) | TGI [µM] |
| --- | --- |
| C=CCc1c(O)c2c(c3oc(=O)cc(C)c13)CC(C)O2 (centres undefined) | > 100 |
| CN(C)c1ccc(/C=c2/c3ccccc3n3c2c2c([n+]3C)CCCC2)cc1 | 0.653 |
| CCOc1ncn(-c2ccc(NC(=S)Nc3ncccn3)cc2)n1 | > 100 |
| CC1(C)OC(C(=O)Nc2cc3c4ccccc4ccc3c3ccccc23)C(C(=O)N2CCCCC2)O1 (centres undefined) | > 100 |
| CCN(CC)CCNc1ccc2nnn3c4ccc(OCCN(CC)CC)cc4c(=O)c1c23 | > 100 |
| COc1cc2c(cc1OC)C(CC1=C(c3ccccc3)CN3CCc4cc(OC)c(OC)cc4C3C1)NCC2 (centres undefined) | 31.1 |
| CC(=O)Nc1ccc(N=Nc2c(O)c(S(=O)(=O)O)cc3cc(S(=O)(=O)O)ccc23)cc1 | > 100 |
| Nc1c(C(=O)O)nnc2ccc(Cl)cc12 | > 100 |
| O=C(O)C(O)C(O)C(O)C(O)c1nc2ccccc2s1 (centres undefined) | 31.9 |

Test system: SK-MEL-2 melanoma
Assay: NCI tumour cell line growth inhibition, 48 h

| Structure (SMILES) | TGI [µM] |
| --- | --- |
| CCCC(=O)OCC1OC(n2ccc(N)nc2=O)C(OC(=O)CCC)C1OC(=O)CCC (centres undefined) | > 100 |
| O=S(=O)(O)CCCc1cccc2ccccc12 | > 100 |
| CC(=O)OC1/C=C(\C)C(OC(C)=O)C/C=C(/C)CCC2C(/C=C/C1=O)C2(C)C (centres undefined) | > 100 |
| NC(CCCCCP(=O)(c1ccccc1)C1C=CC=CC1)C(=O)O (centres undefined) | > 100 |
| COc1ccc(/C=C2\CCNC2=O)cc1 | > 100 |
| CC(C)Cc1ccc(C(C)C(=O)N2CCN(/C=C/c3ccccc3)CC2)cc1 (centres undefined) | 27 |
| CO/N=C(\C)c1ccc(Nc2nc3ccccc3c3occc23)cc1 | 33.4 |
| O=c1cc[nH]c(=O)[nH]1 | > 1000 |
| O=P(O)(O)CCP(=O)(O)O | > 100 |
| O=c1sc2ccccc2n1CC1CS1 (centres undefined) | > 100 |
| Cc1n(Cc2ccccc2)c2c([n+]1C)C(=O)c1ccccc1C2=O | 0.388 |
| O=C1c2cccc3c2C(=O)c2c(cccc21)OCCOCCOCCOCCO3 | > 100 |
| C=CCc1c(O)c2c(c3oc(=O)cc(C)c13)CC(C)O2 (centres undefined) | > 100 |
| CN(C)c1ccc(/C=c2/c3ccccc3n3c2c2c([n+]3C)CCCC2)cc1 | 0.59 |
| CC1(C)OC(C(=O)Nc2cc3c4ccccc4ccc3c3ccccc23)C(C(=O)N2CCCCC2)O1 (centres undefined) | > 100 |
| CCN(CC)CCNc1ccc2nnn3c4ccc(OCCN(CC)CC)cc4c(=O)c1c23 | > 100 |
| COc1cc2c(cc1OC)C(CC1=C(c3ccccc3)CN3CCc4cc(OC)c(OC)cc4C3C1)NCC2 (centres undefined) | 37.1 |
| CC(=O)Nc1ccc(N=Nc2c(O)c(S(=O)(=O)O)cc3cc(S(=O)(=O)O)ccc23)cc1 | > 100 |
| Nc1c(C(=O)O)nnc2ccc(Cl)cc12 | > 100 |
| O=C(O)C(O)C(O)C(O)C(O)c1nc2ccccc2s1 (centres undefined) | 36.5 |

Test system: SN12C renal
Assay: NCI tumour cell line growth inhibition, 48 h

| Structure (SMILES) | TGI [µM] |
| --- | --- |
| CCCC(=O)OCC1OC(n2ccc(N)nc2=O)C(OC(=O)CCC)C1OC(=O)CCC (centres undefined) | > 100 |
| O=S(=O)(O)CCCc1cccc2ccccc12 | > 100 |
| CC(=O)OC1/C=C(\C)C(OC(C)=O)C/C=C(/C)CCC2C(/C=C/C1=O)C2(C)C (centres undefined) | > 100 |
| NC(CCCCCP(=O)(c1ccccc1)C1C=CC=CC1)C(=O)O (centres undefined) | > 100 |
| COc1ccc(/C=C2\CCNC2=O)cc1 | > 100 |
| CC(C)Cc1ccc(C(C)C(=O)N2CCN(/C=C/c3ccccc3)CC2)cc1 (centres undefined) | 30.8 |
| CO/N=C(\C)c1ccc(Nc2nc3ccccc3c3occc23)cc1 | 28.9 |
| O=c1cc[nH]c(=O)[nH]1 | > 917 |
| O=P(O)(O)CCP(=O)(O)O | > 100 |
| O=c1sc2ccccc2n1CC1CS1 (centres undefined) | > 100 |
| Cc1n(Cc2ccccc2)c2c([n+]1C)C(=O)c1ccccc1C2=O | 0.112 |
| O=C1c2cccc3c2C(=O)c2c(cccc21)OCCOCCOCCOCCO3 | > 100 |
| C=CCc1c(O)c2c(c3oc(=O)cc(C)c13)CC(C)O2 (centres undefined) | > 100 |
| CN(C)c1ccc(/C=c2/c3ccccc3n3c2c2c([n+]3C)CCCC2)cc1 | 1.59 |
| CCOc1ncn(-c2ccc(NC(=S)Nc3ncccn3)cc2)n1 | > 100 |
| CC1(C)OC(C(=O)Nc2cc3c4ccccc4ccc3c3ccccc23)C(C(=O)N2CCCCC2)O1 (centres undefined) | > 100 |
| CCN(CC)CCNc1ccc2nnn3c4ccc(OCCN(CC)CC)cc4c(=O)c1c23 | > 100 |
| COc1cc2c(cc1OC)C(CC1=C(c3ccccc3)CN3CCc4cc(OC)c(OC)cc4C3C1)NCC2 (centres undefined) | 37 |
| CC(=O)Nc1ccc(N=Nc2c(O)c(S(=O)(=O)O)cc3cc(S(=O)(=O)O)ccc23)cc1 | > 100 |
| Nc1c(C(=O)O)nnc2ccc(Cl)cc12 | > 100 |
| O=C(O)C(O)C(O)C(O)C(O)c1nc2ccccc2s1 (centres undefined) | 34.8 |

Test system: SNB-19 CNS
Assay: NCI tumour cell line growth inhibition, 48 h

| Structure (SMILES) | TGI [µM] |
| --- | --- |
| CCCC(=O)OCC1OC(n2ccc(N)nc2=O)C(OC(=O)CCC)C1OC(=O)CCC (centres undefined) | > 100 |
| O=S(=O)(O)CCCc1cccc2ccccc12 | > 100 |
| CC(=O)OC1/C=C(\C)C(OC(C)=O)C/C=C(/C)CCC2C(/C=C/C1=O)C2(C)C (centres undefined) | > 100 |
| NC(CCCCCP(=O)(c1ccccc1)C1C=CC=CC1)C(=O)O (centres undefined) | > 100 |
| COc1ccc(/C=C2\CCNC2=O)cc1 | > 100 |
| CC(C)Cc1ccc(C(C)C(=O)N2CCN(/C=C/c3ccccc3)CC2)cc1 (centres undefined) | 22 |
| CO/N=C(\C)c1ccc(Nc2nc3ccccc3c3occc23)cc1 | 31.2 |
| O=c1cc[nH]c(=O)[nH]1 | 828 |
| O=P(O)(O)CCP(=O)(O)O | > 100 |
| O=c1sc2ccccc2n1CC1CS1 (centres undefined) | > 100 |
| Cc1n(Cc2ccccc2)c2c([n+]1C)C(=O)c1ccccc1C2=O | 0.0916 |
| O=C1c2cccc3c2C(=O)c2c(cccc21)OCCOCCOCCOCCO3 | > 100 |
| C=CCc1c(O)c2c(c3oc(=O)cc(C)c13)CC(C)O2 (centres undefined) | > 100 |
| CN(C)c1ccc(/C=c2/c3ccccc3n3c2c2c([n+]3C)CCCC2)cc1 | 6.68 |
| CCOc1ncn(-c2ccc(NC(=S)Nc3ncccn3)cc2)n1 | > 100 |
| CC1(C)OC(C(=O)Nc2cc3c4ccccc4ccc3c3ccccc23)C(C(=O)N2CCCCC2)O1 (centres undefined) | > 100 |
| CCN(CC)CCNc1ccc2nnn3c4ccc(OCCN(CC)CC)cc4c(=O)c1c23 | > 100 |
| COc1cc2c(cc1OC)C(CC1=C(c3ccccc3)CN3CCc4cc(OC)c(OC)cc4C3C1)NCC2 (centres undefined) | 38.8 |
| CC(=O)Nc1ccc(N=Nc2c(O)c(S(=O)(=O)O)cc3cc(S(=O)(=O)O)ccc23)cc1 | > 100 |
| Nc1c(C(=O)O)nnc2ccc(Cl)cc12 | > 100 |
| O=C(O)C(O)C(O)C(O)C(O)c1nc2ccccc2s1 (centres undefined) | 49.8 |

Test system: SNB-78 CNS
Assay: NCI tumour cell line growth inhibition, 48 h

| Structure (SMILES) | TGI [µM] |
| --- | --- |
| CCCC(=O)OCC1OC(n2ccc(N)nc2=O)C(OC(=O)CCC)C1OC(=O)CCC (centres undefined) | > 100 |
| CC(=O)OC1/C=C(\C)C(OC(C)=O)C/C=C(/C)CCC2C(/C=C/C1=O)C2(C)C (centres undefined) | > 100 |
| COc1ccc(/C=C2\CCNC2=O)cc1 | > 100 |
| CC(C)Cc1ccc(C(C)C(=O)N2CCN(/C=C/c3ccccc3)CC2)cc1 (centres undefined) | 46.7 |
| O=c1cc[nH]c(=O)[nH]1 | > 1000 |
| O=C1c2cccc3c2C(=O)c2c(cccc21)OCCOCCOCCOCCO3 | > 100 |
| C=CCc1c(O)c2c(c3oc(=O)cc(C)c13)CC(C)O2 (centres undefined) | > 100 |
| COc1cc2c(cc1OC)C(CC1=C(c3ccccc3)CN3CCc4cc(OC)c(OC)cc4C3C1)NCC2 (centres undefined) | 31.9 |
